Results taken from patent US7241803B2, “Compounds for inhibition of HIV infection by blocking HIV entry” (New York Blood Center, priority 2002, dated 2007).
Values after ≈ are worked out from the molar mass of the structure shown.

Assays:
[1] = system: HIV-1IIIB; assay: inhibition of HIV-1IIIB replication (p24 production) in MT-2 cells; format: cell-based; settings: for IC50: HIV-1IIIB replication, MT-2 cells; for inhibitory activity on HIV-1IIIB replication: concentration up to 80 μg/ml
Text: Assessment of anti-HIV-1 infectivity. […] Reactions were terminated by addition of 1N H2SO4.

[2] = system: HIV-1 AZT-R (clade B, X4); settings: Laboratory-adapted AZT-R (clade B, X4)
Description: Assessment of anti-HIV-1 infectivity. The inhibitory activity of compounds on infection by laboratory-adapted HIV-1 strains was determined as previously described (18). In brief, 1×10^4 MT-2 cells were infected with HIV-1 at 100 TCID50 (50% tissue culture infective dose) in 200 μl of RPMI 1640 medium containing 10% FBS in the presence or absence of compounds at graded concentrations overnight. For the time-of-addition assay, compounds were added at various time post-infection. Then the culture supernatants were removed and fresh media were added. On the fourth day post-infection, 100 μl of culture supernatants were collected from each well, mixed with equal volumes of 5% Triton X-100 and assayed for p24 antigen, which was quantitated by ELISA (51). Briefly, the wells of polystyrene plates (Immulon 1B, Dynex Technology, Chantilly, Va.) were coated with HIV immunoglobulin (HIVIG), which was prepared from plasma of HIV-seropositive donors with high neutralizing titers against HIV-1IIIB as previously described (44) in 0.085 M carbonate-bicarbonate buffer (pH 9.6) at 4° C. overnight, followed by washes with PBS-T buffer (0.01M PBS containing 0.05% Tween-20) and blocking with PBS containing 1% dry fat-free milk (Bio-Rad Inc., Hercules, Calif.). Virus lysates were added to the wells and incubated at 37° C. for 1 h. […] Absorbance at 450 nm was recorded in an ELISA reader (Ultra 384, Tecan). […]

[3] = system: MT-2 & H9/HIV-1IIIB (clade B, X4); assay: cell-cell fusion, dye transfer assay; format: cell-based; settings: MT-2 & H9/HIV-1IIIB (clade B, X4)
Description: Inhibition of cell-cell fusion. A dye transfer assay was used for detection of HIV-1 mediated cell fusion as previously described (21, 24, 34). H9/HIV-1IIIB cells were labeled with a fluorescent reagent, Calcein-AM (Molecular Probes, Inc., Eugene, Oreg.) and then incubated with MT-2 cells (ratio=1:5) in 96-well plates at 37° C. for 2 hrs in the presence or absence of compounds tested. The fused and unfused Cacein-labeled HIV-1-infected cells were counted under an inverted fluorescence microscope (Zeiss, Germany) with an eyepiece micrometer disc. The percentage of inhibition of cell fusion and the IC50 values were calculated as previously described (21).

[4] = system: H9/HIV-1IIIB cells cocultured with MT-2 cells; assay: syncytium-formation assay for screening HIV-1 fusion inhibitors; format: cell-based; settings: single dose 25 μg/ml
Text: Syncytium-formation assay for screening HIV-1 fusion inhibitors. […] HIV-1 induced syncytium formation was observed under an inverted microscope and scored as “−” (no syncytium was observed), “±” (about 50% syncytia were inhibited), and “+” (no syncytium formation was inhibited). The compounds scored with “−” and “±” were selected for further screening by ELISA for inhibitors against the gp41 six-helix bundle formation.

[5] = biological target: T1, CXCR4 (Homo sapiens, UniProt P61073); assay: inhibition of anti-CXCR4 antibody 12G5 binding to CXCR4-expressing cells, cell-based ELISA; settings: 25 μM
T1 construct: expressed in transfected cells; host or cells: U373-MAGI-CXCR4CEM cells
T1 sequence (P61073 whole entry): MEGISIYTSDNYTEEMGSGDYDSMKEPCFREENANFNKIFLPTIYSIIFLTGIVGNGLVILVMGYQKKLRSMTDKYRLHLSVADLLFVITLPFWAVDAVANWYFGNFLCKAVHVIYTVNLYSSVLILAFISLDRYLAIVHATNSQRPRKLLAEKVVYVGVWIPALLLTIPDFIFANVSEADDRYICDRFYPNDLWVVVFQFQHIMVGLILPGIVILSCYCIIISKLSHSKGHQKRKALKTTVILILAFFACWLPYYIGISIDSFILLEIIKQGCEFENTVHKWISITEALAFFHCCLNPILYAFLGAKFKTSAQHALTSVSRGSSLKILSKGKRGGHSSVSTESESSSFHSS
Description: Inhibition of anti-CXCR4 antibody binding to CXCR4-expressing cells. The inhibition of the binding of anti-CXCR4 antibody to CXCR4-expressing cells was determined using a cell-based ELISA as described previously (52). Briefly, U373-MAGI-CXCR4CEM cells (1×10^5/well) which express CXCR4 molecules were cultured in a 96-well plate at 37° C. overnight. The cells were fixed with 5% formaldehyde at room temperature for 15 min and washed with PBS-T. The cells were incubated with anti-CXCR4 mAb 12G5 at 37° C. for 1 h in the presence or absence of compounds tested. Isotype IgG2a was used as a control.

[6] = biological target: N36/C34 mixture (Human immunodeficiency virus type 1 group M subtype B, UniProt P04578); settings: 100 μg/ml
Chain of N36/C34 mixture (P04578 546-581): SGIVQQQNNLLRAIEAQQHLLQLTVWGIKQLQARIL
Description: Circular dichroism (CD) spectroscopy. A test compound at graded concentrations was incubated with N36 in phosphate buffer (pH 7.2) at 37° C. for 30 min before addition of C34 in the same buffer at equimolar concentration. After incubation at 37° C. for 30 min, the mixture was cooled down and CD spectra of the mixture were measured on the J-715 CD spectrometer equipped with a thermoelectric temperature controller (Jasco, Japan). The instrument was calibrated using a two point calibration method with (+)-10-camphorsulfonic acid. The wavelength dependence of molar ellipticity (θ) was monitored at 0° C. by 5 scans in 1 nm increments with a sampling time of 10 seconds as previously described (12, 51). The CD signal at 222 nm was measured as a function of temperature. Thermal melts were performed in 2° C. steps, with 2 min of equilibration at each temperature and an acquisition time of 0.5 min. The midpoint of the thermal unfolding transition (Tm) was estimated from the maximum of the first derivative of the CD signal at 222 nm (1).

[7] = system: gp41 pocket presented on IQN17
Description: Inhibition of a biotinylated D-peptide binding to IQN17. For measuring the binding of a D-peptide, D10-p5-2k to IQN17, an ELISA was established. In brief, wells of a 96-well polystyrene plate were coated with IgG (10 μg/ml) purified from rabbit antisera directed against IQN17. The peptide IQN17 (10 μM) was incubated with a compound at graded concentrations at 37° C. for 30 min before addition of the peptide D10-p5-2K-biotin (5 μM). After incubation at 37° C. for 30 min, the mixture was added to the plate, followed by incubation at 37° C. for 30 min. After extensive washes, D10-p5-2K-biotin bound to the IQN17 was quantitated by addition of SA-HRP and TMB sequentially. The absorbance at 450 nm was read using an ELISA reader (Tecan). The percentage of inhibition by the compounds was calculated as described above.

SMILES	IC50 [1]	inhibitory activity on HIV-1IIIB replication [1]	IC50 (μg/ml) for inhibition of p24 production [2]	IC50 (μg/ml) for inhibition of cell-cell fusion [3]	inhibition of HIV-1 mediated syncytium formation [4]	inhibition of 12G5 binding to U373-MAGI-CXCR4CEM cells [5]	α-helicity of the N36/C34 mixture [6]	inhibition of biotinylated D10-p5-2K binding to IQN17 [7]
Cc1ccc(C)n1-c1ccc(C(=O)O)c(O)c1 [NB-2]	0.24 ± 0.05 mg/L (≈ 1.04 µM)	significantly inhibited	1.41 ± 0.03 µg/mL	1.53 ± 0.17 µg/mL	significantly inhibited	no inhibitory activity	significantly disrupted	significantly inhibited
O=C(O)c1cc(-n2cccc2)ccc1Cl [NB-64]	0.49 ± 0.09 mg/L (≈ 2.21 µM)	significantly inhibited	6.25 ± 0.25 µg/mL	2.02 ± 0.19 µg/mL	significantly inhibited	no inhibitory activity	significantly disrupted	significantly inhibited
